{"source": "patent US11554105B2", "about": "“Combinations of artemisinins, BCL-2 inhibitors, and kinase inhibitors for cancer treatment” (UNIVERSITY OF MARYLAND, BALTIMORE, priority 2018, dated 2023)", "key": {"[1]": {"test_system": "mitochondrial superoxide in MOLM14 cells", "test": "Mitochondrial superoxide (MitoSOX Red, flow cytometry)", "type": "cell-based, human", "settings": "16 h", "protocol": "FIGS. 4A-4D. Effects of ART-838- and AS-containing drug combinations on MOLM14 growth and superoxide generation. […] CIs were computed as described above. CI<1 indicates synergy, CI=1, additivity, CI>1, antagonism. […] Cells were then loaded with 5 μM MitoSox for 30 min, washed, and analyzed by flow cytometry for MitoSox fluorescence (indicating mitochondrial superoxide) in the FL2 channel. Mean fluorescence intensity (MFI) was normalized to that of vehicle control (0.5% DMSO) with no pretreatment (100%, lower dotted lines). Upper dotted lines show MFI of ART-838- or AS-treated cells. Error bars represent the SEM of three independent experiments.\nCells were pretreated with NAC, Tiron, DFO, or vehicle then treated with AS, ART-838, or vehicle, as described above, then following a 16-hour drug treatment, cells were loaded with 5 μM MitoSOX Red (Invitrogen, Carlsbad, Calif.) for 30 minutes at 37° C. with 5% CO2, then analyzed using the FL2 channel of an Accuri C6 flow cytometer.\nAs both ART-838 and AS increased mitochondrial superoxide, and many antineoplastic drugs induce ROS generation, mitochondrial superoxide levels of MOLM14 cells treated with each of the above six antileukemic drugs were evaluated, alone and in combination with ART-838 or AS. All six drugs induced mitochondrial superoxide, although to a much lesser extent than did ART-838 (FIG. 4B) or AS (FIG. 4D)."}, "[2]": {"test_system": "human AML cell lines", "test": "In vitro efficacies of artemisinin derivatives against human AML cell lines", "type": "cell-based", "protocol": "Cell lines were seeded in 96-well tissue culture plates at 10^4 cells per well (myeloid leukemia lines) or 2×10^4 cells per well (lymphoid leukemia lines) in culture medium, followed by addition of drugs at the indicated concentrations. 2-4 wells per plate containing media-only were included for background subtraction. Peripheral wells were filled with sterile water to minimize the effects of evaporation.\nA novel trioxane dimer allyloxime-631 (ART631) has been designed to further extend in vivo T1/2 without sacrificing antimalarial activity."}, "[3]": {"settings": "PO qd×5 at MTD; 15 mg/kg ART631, 50 mg/kg ART838", "protocol": "(§1) FIG. 24. Concentration-time profile for 2C-ARTs with PK parameters.\nPreliminary pharmacokinetic (PK) studies were designed to compare the PK of ART631 at steady-state at its maximum tolerated dose (MTD) (FIG. 24). […] ART631 plasma concentrations exceeded 50 nM for ˜8 h."}, "[4]": {"test": "in vivo", "excerpt": "as §1\nFIG. 25A-25C. […] NOD-Rag1^nullIL2rg^null (NRG) mice were transplanted IV with Luc-labelled MV4; 11 cells on d10. […] FIG. 25A) MTD cyclic drug treatment schema."}, "[5]": {"test_system": "MV4:11 or MOLM14 AML xenografts", "test": "Luc-labelled AML xenografts treated with VEN, SOR and ART838 or ART631 (5-cycle MTD regimen)", "type": "in vivo, NRG mice", "settings": "two AML xenograft models; single agents and in combination with VEN+SOR", "excerpt": "FIG. 25A-25C. […] FIG. 25A) MTD cyclic drug treatment schema.\nOutcome metrics included 1) maximal in vivo antileukemic efficacy 3 days (d) after completion of the 1st treatment cycle (FIG. 25B); 2) survival (FIG. 25C); and 3) toxicity."}, "[6]": {"test_system": "human leukemia cell lines", "settings": "more potent than AS; cited from earlier work"}, "[7]": {"settings": "cited from earlier work"}, "[8]": {"test_system": "KOPN8", "test": "Kinase inhibitor drug combination screen (MTS, Bliss-independence analysis)", "type": "cell-based, human", "settings": "Drug 1 combined with ART-838 (Drug 2) at its approximate IC50, 48 h, average over seven Drug 1 concentrations"}, "[9]": {"test_system": "RCH-ACV", "test": "Kinase inhibitor drug combination screen (MTS, Bliss-independence analysis)", "settings": "Drug 1 combined with AS (Drug 2) at its approximate IC50, 48 h, average over seven Drug 1 concentrations", "quoted_text": "(§3) Plates (3×384-well per set) contained 7 graded concentrations of each drug at 2× final concentration in culture media in 25 μl/well. […] Cells were plated such that each well contained 2500 cells (MOLM14) or 5000 cells (KOPN8 and RCH-ACV). […] Each plate contained two positive control wells used for background subtraction. Each plate also contained 45 wells without any drug. The background-subtracted absorbance for each well was normalized to the average of the no-drug wells from the corresponding vehicle plate.\n(§4) Hits were ranked by the observed inhibition over the Bliss independence prediction.\n(§5) Combinations with positive values for this Bliss difference were considered synergistic, values near zero, additive, and negative values, antagonistic."}, "[10]": {"test_system": "MOLM14, KOPN8 and RCH-ACV cell lines", "test": "Kinase inhibitor drug combination screen, summary over the three cell lines", "settings": ">10% growth inhibition over the Bliss prediction; of three cell lines", "quoted_text": "as §3, §4, §5"}, "[11]": {"test_system": "MOLM14 AML xenografts", "test": "Subcutaneous MOLM14 xenograft growth, SOR with AS", "type": "in vivo, NSG mice", "settings": "tumor size on day 24; drugs p.o.", "protocol": "FIG. 15. AS enhanced in vivo efficacy of Sorafenib (SOR) against acute leukemia xenografts in NSG mice. […] Drug or vehicle were given p.o. on day 3-7, 17-21, and 31-35 when possible. Mouse tumors were measured on the indicated days.\nThe NSG mice were obtained, maintained and handled as described in the paragraph immediately above. AS was also formulated in Tween 80:ethanol (7:3, v:v) and diluted 1:10 in filtered deionized water immediately before administration. For the human AML xenograft model, 6-12-week-old male NSG mice (>20 g) were transplanted sc with MOLM14 cells on day 0 and drug-treated via oral gavage, as specified in legend. Mice were monitored daily and euthanized when tumors reached an estimated mass of 2000 mg as described in the paragraph immediately above.\nPalpable tumors appeared about 2 weeks after transplantation."}, "[12]": {"test_system": "acute leukemia xenografts", "test": "Acute leukemia xenografts treated with ART838 two-drug combinations", "type": "in vivo", "settings": "compared to vehicle or single drugs", "excerpt": "(§2) To add to the efficacy of this ART838 plus ABT199 treatment regimen, rational addition of a third low-toxicity active antileukemic agent was investigated."}, "[13]": {"test_system": "MCL1", "test": "Western blot of MCL1 protein levels", "type": "cell-based, human", "settings": "acute leukemia / AML cell lines", "protocol": "FIG. 22. ART631 increased ROS and CHOP levels, and reduced MCL1 protein levels. A) MOLM14 AML cells were pre-loaded with 5 mM ROS detection reagent CM-H2DCFDA for 30 m, pretreated with 11 mM for DFO for 60 m, then cultured with 200 nM ART631 or vehicle (DMSO) for 18 h and analyzed by flow cytometry. […] Protein was Western blotted as in FIG. 21. MCL1 protein levels were decreased and CHOP protein levels increased. C) From MOLM14 AML cells cultured as above, total RNA was isolated, cDNA synthesized, and SYBR Green qRT-PCR performed in triplicates. Ct values were normalized to housekeeping gene GAPDH and fold-change computed relative to vehicle control. DDIT3 mRNA (encoding CHOP protein) was increased. MV4; 11 AML and ML2 AML cell lines were tested with similar results.\nas §2\nMany acute myeloid leukemia (AML) cell lines express MCL1±BCL2 (FIG. 21). As with other ARTs, ART631 elevates AML cellular ROS (FIG. 22A), which is reduced by the iron chelator desferrioxamine (DFO). […] Culture of AML cells with ARTs increased CHOP protein and DDIT3 mRNA (encodes CHOP) levels (FIG. 22C)."}}, "note": "Entries after “also recorded” stand apart in the source; their conditions may differ. Like-named read-outs stand apart in the source and are kept apart here. Marks after values point to notes of the source that are not given here.", "data": [{"smiles": "C[C@@H]1CCC2[C@@H](C)[C@@H](CC(COP(=O)(Oc3ccccc3)Oc3ccccc3)C[C@H]3O[C@@H]4O[C@@]5(C)CCC6[C@H](C)CCC([C@H]3C)[C@]64OO5)O[C@@H]3O[C@@]4(C)CCC1[C@@]23OO4", "note": "(some centres unmarked) [ART-838, artemisinin-derived trioxane diphenylphosphate dimer 838]", "values": [{"measurement": "mitochondrial superoxide generation, drug alone", "setting": "[1]; 2.25× approximate 48 h IC50, MitoSox MFI", "result": "induced superoxide to greater levels than AS; also recorded: induced mitochondrial superoxide generation"}, {"measurement": "IC50", "setting": "[2]; median over the human AML cell lines tested (11 for AS and ART838, 4 for ART631), read-out: IC50 median", "result": 38, "unit": "nM"}, {"measurement": "IC50", "setting": "[2]; range over the human AML cell lines tested (11 for AS and ART838, 4 for ART631), read-out: IC50 range", "result": "10 to 547", "unit": "nM"}, {"measurement": "exposure, oral ART631 compared with ART838", "setting": "[3]", "result": "similar"}, {"measurement": "previously established MTD, PO×5 d schedule", "setting": "[4]; 5 d-on/9 d-off, gavage", "result": 50, "unit": "mg/kg/day"}, {"measurement": "MTD regimen, repeated dose", "setting": "[4]; qd×5 PO", "result": 50, "unit": "mg/kg"}, {"measurement": "tolerability and antileukemic efficacy, ART631 compared with ART838", "setting": "[5]", "result": "closely similar tolerability and antileukemic efficacy"}, {"measurement": "in vitro potency relative to AS", "setting": "[6]", "result": 88, "unit": "fold"}, {"measurement": "in vivo T1/2", "setting": "[7]", "result": 3, "unit": "h"}]}, {"smiles": "COc1cc(Oc2ccnc3cc(OC)c(OC)cc23)ccc1NC(=O)NC(C)c1nccs1", "note": "(centres unmarked) [KI20227]", "values": [{"measurement": "fractional inhibition over Bliss prediction", "setting": "[8]", "result": "KOPN8 (0.12)"}, {"measurement": "fractional inhibition over Bliss prediction", "setting": "[9]", "result": "RCH-ACV (0.14)"}, {"measurement": "No. Cell Lines synergistically inhibited by drug 1 combined with AS and/or ART-838", "setting": "[10]", "result": "2/3**"}]}, {"smiles": "CNC(=O)c1cc(Oc2ccc(NC(=O)Nc3ccc(Cl)c(C(F)(F)F)c3)cc2)ccn1", "note": "[SOR, sorafenib]", "values": [{"measurement": "effect of the drug on AS-induced superoxide", "setting": "[1]; drug combined with AS, each at 2.25× approximate 48 h IC50", "result": "reduced"}, {"measurement": "tumor growth inhibition, AS plus SOR versus either drug alone", "setting": "[11]", "result": "inhibited tumor growth substantially more than did either drug alone"}, {"measurement": "leukemia xenograft growth rates, drug combined with ART838", "setting": "[12]", "result": "reduced leukemia xenograft growth rates"}, {"measurement": "survival, drug combined with ART838", "setting": "[12]", "result": "prolonged survivals"}, {"measurement": "MCL1 protein levels", "setting": "[13]", "result": "large reductions; also recorded: downregulates"}]}]}
